Values of other authors as cited in patent US6383773B2, “Penicillin conversion” (Massachusetts Institute of Technology, priority 1998, dated 2002).

Target: T1, C. acremonium expandase (Hapsidospora chrysogena, UniProt P11935)
T1 sequence (P11935 1-332): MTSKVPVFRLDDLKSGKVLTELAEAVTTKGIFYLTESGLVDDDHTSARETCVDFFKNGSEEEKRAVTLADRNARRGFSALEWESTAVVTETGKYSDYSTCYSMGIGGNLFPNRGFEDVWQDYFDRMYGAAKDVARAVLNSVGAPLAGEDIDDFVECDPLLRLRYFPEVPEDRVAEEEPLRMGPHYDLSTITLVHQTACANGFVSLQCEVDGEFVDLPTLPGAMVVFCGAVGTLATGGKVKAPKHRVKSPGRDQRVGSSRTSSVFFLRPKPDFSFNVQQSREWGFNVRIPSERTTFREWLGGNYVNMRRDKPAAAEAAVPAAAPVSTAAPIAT
Conditions: cited from earlier work

CC1(C)S[C@@H]2[C@H](NC(=O)Cc3ccccc3)C(=O)N2[C@H]1C(=O)O [Penicillin G, penicillin G]
substrate for expandase activity (crude extracts (Kohsaka et al. 1976; Demain et al.)): not
ring expansion (partially purified enzyme (Kupka et al. 1983)): does not expand
